{"source": "patent US20130023504A1", "about": "“Modulation of Prostaglandin/Cyclooxygenase Metabolic Pathways” (HUNTER-FLEMING LIMITED, priority 2006, published 2013)", "tested_on": "COX-2 mRNA", "test": "COX-2 mRNA in human PBMC with and without TNF-α, quantitative RT-PCR", "type": "cell-based", "protocol": "Whole blood was collected from donors in EDTA-supplemented pouches at the Etablissement Français du Sang (Brest, France). The PBMC were isolated then from whole blood under sterile conditions within 36 hours after collection. Gradient density centrifugation was carried out on Ficoll (Eurobio). After washing in RPMI 1640 medium (Eurobio), cells were suspended in RPMI 1640 medium supplemented with 10% heat-inactivated fetal calf serum (Eurobio), 2 mM glutamine (D. Dutscher), 100 U of penicillin/ml (D. Dutscher), and 100 μg of streptomycin/ml (D. Dutscher). Monocytes were selected by plastic adherence for 1 h and approximately 10^7 cells were plated in 6-well tissue culture plates (3 mL medium per well). All incubations were performed in a humidified incubator at 37° C. and 5% CO2. Cells were recovered and dispersed in 2 ml fresh incubation medium supplemented with either 7β-hydroxyEPIA, 7β-hydroxy-DHEA, or 7α-hydroxy-DHEA (in 20 μL ethanol) in the presence or absence of 0.01 μg/mL TNF-α (Sigma-Aldrich). Control incubations contained 20 μl ethanol but no steroid. Supernatants were collected after 4 h and 24 hours incubations for measurement of their PG contents and cells were used for subsequent RNA isolation. A single step extraction method using the Trizol Reagent (Invitrogen, Cergy-Pontoise, France) provided total RNA.\ncDNAs were synthesized from TURBO DNase I—treated RNA (Ambion, Huntingdon, UK) using the Superscript first strand synthesis system kit (Invitrogen). RT-PCR amplification mixtures (50 μL) contained 2.5× RealMaster Mix/20×SYBR solution (11.25 μL) (Eppendorf, Le Pecq, France) and 200 nM forward and reverse primers. Reactions were run on a RealPlex ep gradient S mastercycler (Eppendorf). The cycling conditions were 10 minutes at 95° C. and 45 cycles at 95° C., 55° C. and 68° C. for 15 seconds, 30 seconds and 30 seconds, respectively. Each assay included a standard curve of four serial dilution points of control cDNA. The HPRT1 housekeeping gene was used for quantification. All oligonucleotide primers (Table 2) were synthesized by Genecust/Distribio (Evry, France). The specificity of the amplified product was monitored by examining the melting curve of the product and confirmed by analysis on agarose gel electrophoresis.\nAll assays were carried out in triplicate and results were plotted as mean±S.E.M. One-way analysis of variance was performed followed by Duncan's multiple range tests in order to compare the differences between groups. Differences were considered statistically significant when p<0.05.", "note": "Marks after values point to notes of the source that are not given here."}
{"compound": "CC12CCC3C(C1CCC2=O)[C@@H](O)C[C@H]1C[C@@H](O)CCC31C", "note": "(stereo partly drawn) [Compound 7β-OH-EPIA, 7β-hydroxy-EPIAndrosterone]", "values": [{"measurement": "COX-2 (mRNA), mRNA production relative to controls", "setting": "1 nM + TNF-α (10 ng/mL), 4 h", "value": "7.39 ± 0.282^c"}, {"measurement": "COX-2 (mRNA), mRNA production relative to controls", "setting": "1 nM + TNF-α (10 ng/mL), 24 h", "value": "2.74 ± 0.555^c"}, {"measurement": "COX-2 (mRNA), mRNA production relative to controls", "setting": "1 nM, 4 h, without TNF-α", "value": "0.56 ± 0.072^b"}, {"measurement": "COX-2 (mRNA), mRNA production relative to controls", "setting": "1 nM, 24 h, without TNF-α", "value": "0.82 ± 0.27^b"}, {"measurement": "COX-2 (mRNA), mRNA production relative to controls", "setting": "10 nM + TNF-α (10 ng/mL), 4 h", "value": "2.75 ± 0.147^d"}, {"measurement": "COX-2 (mRNA), mRNA production relative to controls", "setting": "10 nM + TNF-α (10 ng/mL), 24 h", "value": "0.94 ± 0.194^d"}, {"measurement": "COX-2 (mRNA), mRNA production relative to controls", "setting": "10 nM, 4 h, without TNF-α", "value": "0.94 ± 0.048"}, {"measurement": "COX-2 (mRNA), mRNA production relative to controls", "setting": "10 nM, 24 h, without TNF-α", "value": "1.66 ± 0.408"}, {"measurement": "COX-2 (mRNA), mRNA production relative to controls", "setting": "100 nM + TNF-α (10 ng/mL), 4 h", "value": "5.76 ± 0.660"}, {"measurement": "COX-2 (mRNA), mRNA production relative to controls", "setting": "100 nM + TNF-α (10 ng/mL), 24 h", "value": "0.67 ± 0.132^d"}, {"measurement": "COX-2 (mRNA), mRNA production relative to controls", "setting": "100 nM, 4 h, without TNF-α", "value": "1.10 ± 0.108"}, {"measurement": "COX-2 (mRNA), mRNA production relative to controls", "setting": "100 nM, 24 h, without TNF-α", "value": "1.05 ± 0.214"}]}
